Literature values in patent US12268679B1 (priority 2021, dated 2025).

What was measured:
human delta receptor = human delta receptor (Homo sapiens, UniProt P41143); settings: Ferrari et al. 2017
[1] = animal studies, systemic administration, Hirao et al. 2008

Chain of human delta receptor (P41143 whole entry): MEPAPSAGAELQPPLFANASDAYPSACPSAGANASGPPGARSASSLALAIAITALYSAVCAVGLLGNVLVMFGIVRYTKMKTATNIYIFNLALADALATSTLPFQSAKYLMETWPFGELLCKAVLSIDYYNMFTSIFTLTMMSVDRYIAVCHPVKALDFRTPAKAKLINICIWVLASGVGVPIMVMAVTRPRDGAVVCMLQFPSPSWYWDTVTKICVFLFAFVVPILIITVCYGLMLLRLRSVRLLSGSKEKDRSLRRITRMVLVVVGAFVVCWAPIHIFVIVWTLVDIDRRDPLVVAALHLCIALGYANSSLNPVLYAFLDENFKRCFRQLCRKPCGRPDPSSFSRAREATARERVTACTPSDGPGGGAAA

Structure (SMILES): CC1(N2CCC(n3c([C@@H]4CCCNC4)nc4ccccc43)CC2)CCCCCCC1 [MCOPPB, 1-[1-(1-methylcyclooctyl)-4-piperidinyl]-2-[(3R)-3-piperidinyl]-1H-benzimidazole]
- activation of human delta receptor (human delta receptor): only a small amount
- inhibition of memory or motor function [1]: no inhibition of memory or motor function
- sedative side effects ([1]; appear only at much higher doses than the effective anxiolytic dose range): only slight sedative side effects
